{
  "source": "patent US8252831B2",
  "about": "“Imidazole-2-benzamide compounds useful for the treatment of osteoarthritis” (Eli Lilly and Company, priority 2010, dated 2012)",
  "key": {"Human whole blood": {"test_system": "Human whole blood", "assay": "Human Whole Blood Assay (LPS induced PGE2 production)", "format": "cell-based", "details": "LPS 100 μg/mL, 20-24 hours, PGE2 by LC/MS/MS, read-out: PGE2 Inhibition. IC50 (μM, mean ± std. dev.)", "experimental": "Blood is collected from normal volunteer donors into sodium heparin vacutainer tubes. Donors are selected, in part, on their confirmation that they have not taken NSAIDs, aspirin, Celebrex, or glucocorticoids within two weeks of the donation. All tubes/donor are pooled into 250 mL Corning conical centrifuge tubes and 436.5 μL/well is distributed into deep well polypropylene plates. Compounds are diluted in DMSO to 100× final and 4.5 μL/well in duplicate or triplicate is added to give 7 point curves. […] One hundred microliters is quantitatively transferred to Costar cluster tubes blocks and 400 μL/well of the methanol stop reagent and internal standards, d-4PGE2, d-4PGF2α, and d-4TX2β are added. […]\nSolid phase extraction is performed using Waters HLB 30 mg/bed 96 well plates on a vacuum manifold: 1) the matrix is washed with methanol (1 mL), followed by 0.1% formic acid in water (1 mL); 2) 400 μL sample is applied along with 0.1% formic acid in water (900 μL) and allowed to bind for 5 minutes; 3) the matrix is washed with 0.1% formic acid in water (600 μL), followed by 80/20 water/methanol (600 μL); 4) the products are eluted with 2-500 μL volumes of ethyl acetate; 5) the samples are dried under nitrogen and reconstituted in 75/25 water/acetonitrile with 0.1% formic acid (50 μL). The products were analyzed by LC/MS/MS. […]"}, "[1]": {"test_system": "Human epithelial lung carcinoma cell line A549", "assay": "Cell Based Assay for Measuring Eicosanoid Selectivity (rhIL-1β induced PGE2 in A549 cells)", "details": "rhIL-1β 0.1-0.2 ng/mL, approximately 18 hours, PGE2 by EIA, read-out: PGE2 Inhibition. IC50 (μM, mean ± std. dev.)", "experimental": "Human epithelial lung carcinoma cell line A549 is obtained from ATCC (CCL-185) and is maintained in Kaighn's F12 (“F12K”)+10% fetal bovine serum, (FBS) (plating medium), and 5% CO2. The cells are passaged at 1:3 twice per week.\nFor assay, cells are released from flasks by washing once with phosphate buffered saline (PBS), then once with Trypsin/EDTA. After 3-5 minutes at 37° C., the cells are suspended in 10 mL of plating medium and centrifuged at 2000 rpm, 25° C., for 5 minutes. The supernatant is aspirated and the cell pellet is resuspended in 10 mL F12K. Cell number is determined by counting an aliquot of cells which has been diluted in PBS and Trypan blue on a hemocytometer. Cells are plated at 40,000/well in 96 well Falcon plates 24 hours prior to treatment. Compounds are diluted in DMSO to 100× of the final concentration in Screen Mates tubes. The medium is removed from the cells and fresh medium (90 μL/well) is added to the cells. […] The plates are incubated at room temperature for 30-45 minutes and then read on a plate reader at A490 to determine viability. […]\nThe conditioned medium is assayed for levels of PGE2 and PGI2 by specific enzyme immune-assays (EIAs), according to the manufacturer's protocols (Cayman). […] After approximately 45 minutes at room temperature on an orbital shaker at 100 rpm, the plates are read at A412 on a plate reader. […]"}},
  "data": [
    {"molecule": "CC(C)(C)C(=O)NCc1ccc(Br)c(C(=O)Nc2ncc[nH]2)c1", "note": "[Example 5, 2-Bromo-5-[(2,2-dimethylpropanoylamino)methyl]-N-(1H-imidazol-2-yl)benzamide]", "values": [
      {"measurement": "IC50", "setting": "Human whole blood", "result": "0.607 ± 0.502", "unit": "µM"},
      {"measurement": "IC50", "setting": "[1]", "result": 0.19, "unit": "µM"}
    ]}
  ]
}
